Source: patent US20250333407A1, “Compounds and Their Use for Treatment of Hemoglobinopathies” (Bristol-Myers Squibb Company, priority 2024, published 2025)

Tests used:
Format in all cases: cell-based
ZBTB7A = target: T1, ZBTB7A (Homo sapiens, UniProt O95365+Q96SW2); assay: HUDEP-2 ZBTB7A HiBiT degradation assay; conditions: HiBiT-tagged ZBTB7A degradation in HUDEP-2 cells, 24 hours of treatment; read-out: ZBTB7A EC50
T1 construct: HUDEP-2 cells engineered to express a HiBiT tag in either the WIZ (Widely interspaced zinc finger) or ZBTB7A
Summary of the method: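 HiBiT-tagged HUDEP-2 cells were pre-cultured 48 h in IMDM with EPO, SCF, doxycycline and 5% human plasma, then exposed to compounds at 1.0×10^6 cells/ml for 24 h at 37 °C. Nano-Glo HiBiT lytic luminescence, normalised to DMSO over 10 concentrations, gave EC50 and Y-min.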

WIZ = target: T2, WIZ (Homo sapiens, UniProt O95785+Q96SW2); assay: HUDEP-2 WIZ HiBiT degradation assay; conditions: HiBiT-tagged WIZ degradation in HUDEP-2 cells, 24 hours of treatment; read-out: WIZ EC50
T2 construct: HUDEP-2 cells engineered to express a HiBiT tag in either the WIZ (Widely interspaced zinc finger) or ZBTB7A
Summary of the method: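 HiBiT-tagged HUDEP-2 cells at 1.0×10^6 cells/ml in SFEM II with SCF, EPO, dexamethasone and doxycycline, treated 24 h at 37 °C with a 10-point series ([…]). Luminescence after HiBiT lytic detection, normalized to DMSO; EC50 and Y-min from fitted curves.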

HbF = HbF HiBiT induction assay in HUDEP-2 cells; conditions: HUDEP-2 cells with HiBiT tag in HBG1/2, 72 hours of treatment; area under the dose response curve, higher AUC = greater HbF induction
Summary of the method: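 HUDEP-2 cells carrying a HiBiT tag on HBG1/2 were exposed to compounds for 72 h at 37° C, 5% CO2, in IMDM with EPO, hSCF, DOX, transferrin, insulin, heparin and 5% human plasma. HiBiT luminescence was read after lytic detection; HbF induction is expressed as dose-response AUC, alongside EC50 and Ymax.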

T2 sequence (O95785 whole entry): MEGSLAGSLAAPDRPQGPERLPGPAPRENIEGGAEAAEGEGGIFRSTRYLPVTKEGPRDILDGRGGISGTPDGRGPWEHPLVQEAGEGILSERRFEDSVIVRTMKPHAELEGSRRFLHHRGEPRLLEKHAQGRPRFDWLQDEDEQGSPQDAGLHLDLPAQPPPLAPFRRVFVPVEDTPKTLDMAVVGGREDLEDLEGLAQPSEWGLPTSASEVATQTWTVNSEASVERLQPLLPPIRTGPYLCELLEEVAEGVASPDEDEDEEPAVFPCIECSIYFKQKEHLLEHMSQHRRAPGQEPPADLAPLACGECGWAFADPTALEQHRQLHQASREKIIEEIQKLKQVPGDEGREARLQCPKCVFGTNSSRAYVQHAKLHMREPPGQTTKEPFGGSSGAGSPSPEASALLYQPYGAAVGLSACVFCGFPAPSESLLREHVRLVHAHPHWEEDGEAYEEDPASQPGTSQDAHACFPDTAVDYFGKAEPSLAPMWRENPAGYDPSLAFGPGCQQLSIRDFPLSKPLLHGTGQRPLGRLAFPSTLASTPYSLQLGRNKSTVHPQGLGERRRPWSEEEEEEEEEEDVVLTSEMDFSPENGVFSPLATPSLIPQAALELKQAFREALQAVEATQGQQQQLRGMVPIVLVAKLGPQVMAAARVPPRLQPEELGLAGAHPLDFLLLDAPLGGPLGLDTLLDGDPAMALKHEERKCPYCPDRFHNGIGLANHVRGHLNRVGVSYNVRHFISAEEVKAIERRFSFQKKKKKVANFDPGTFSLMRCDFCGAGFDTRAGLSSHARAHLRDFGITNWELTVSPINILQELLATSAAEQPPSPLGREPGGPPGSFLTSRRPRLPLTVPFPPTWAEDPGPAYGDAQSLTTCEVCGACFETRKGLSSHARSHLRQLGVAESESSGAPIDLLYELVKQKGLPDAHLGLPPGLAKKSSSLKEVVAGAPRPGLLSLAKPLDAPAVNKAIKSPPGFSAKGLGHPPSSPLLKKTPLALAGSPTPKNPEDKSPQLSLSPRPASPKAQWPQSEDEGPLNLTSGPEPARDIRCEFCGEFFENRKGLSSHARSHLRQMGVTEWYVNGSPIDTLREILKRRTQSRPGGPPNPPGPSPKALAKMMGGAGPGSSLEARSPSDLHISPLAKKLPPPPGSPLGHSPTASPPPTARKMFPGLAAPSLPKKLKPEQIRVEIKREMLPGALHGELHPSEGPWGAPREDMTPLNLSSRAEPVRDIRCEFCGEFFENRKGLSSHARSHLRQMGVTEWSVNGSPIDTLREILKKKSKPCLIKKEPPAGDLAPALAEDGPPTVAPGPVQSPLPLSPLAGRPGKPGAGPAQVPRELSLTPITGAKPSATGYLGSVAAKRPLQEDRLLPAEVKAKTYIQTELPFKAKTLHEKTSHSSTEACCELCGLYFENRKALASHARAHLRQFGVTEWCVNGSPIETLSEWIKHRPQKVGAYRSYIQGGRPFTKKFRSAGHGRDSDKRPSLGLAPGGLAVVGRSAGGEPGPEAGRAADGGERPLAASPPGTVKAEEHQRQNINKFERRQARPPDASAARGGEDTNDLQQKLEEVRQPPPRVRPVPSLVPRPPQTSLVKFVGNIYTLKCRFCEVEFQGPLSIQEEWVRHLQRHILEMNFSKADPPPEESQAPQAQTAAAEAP
T2 sequence (Q96SW2 whole entry): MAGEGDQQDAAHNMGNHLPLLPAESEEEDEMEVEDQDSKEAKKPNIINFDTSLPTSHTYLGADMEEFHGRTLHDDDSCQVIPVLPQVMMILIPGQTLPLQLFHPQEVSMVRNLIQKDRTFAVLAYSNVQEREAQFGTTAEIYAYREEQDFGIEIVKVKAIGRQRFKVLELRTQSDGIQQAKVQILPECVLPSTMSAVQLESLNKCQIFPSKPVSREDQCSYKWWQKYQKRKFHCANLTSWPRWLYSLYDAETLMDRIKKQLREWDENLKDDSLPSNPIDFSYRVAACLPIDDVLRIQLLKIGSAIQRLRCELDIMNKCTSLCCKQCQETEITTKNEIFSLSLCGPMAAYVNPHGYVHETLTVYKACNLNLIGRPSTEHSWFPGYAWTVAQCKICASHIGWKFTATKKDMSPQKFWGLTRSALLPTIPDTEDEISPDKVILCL
T2 sequence (Q16531 whole entry partner): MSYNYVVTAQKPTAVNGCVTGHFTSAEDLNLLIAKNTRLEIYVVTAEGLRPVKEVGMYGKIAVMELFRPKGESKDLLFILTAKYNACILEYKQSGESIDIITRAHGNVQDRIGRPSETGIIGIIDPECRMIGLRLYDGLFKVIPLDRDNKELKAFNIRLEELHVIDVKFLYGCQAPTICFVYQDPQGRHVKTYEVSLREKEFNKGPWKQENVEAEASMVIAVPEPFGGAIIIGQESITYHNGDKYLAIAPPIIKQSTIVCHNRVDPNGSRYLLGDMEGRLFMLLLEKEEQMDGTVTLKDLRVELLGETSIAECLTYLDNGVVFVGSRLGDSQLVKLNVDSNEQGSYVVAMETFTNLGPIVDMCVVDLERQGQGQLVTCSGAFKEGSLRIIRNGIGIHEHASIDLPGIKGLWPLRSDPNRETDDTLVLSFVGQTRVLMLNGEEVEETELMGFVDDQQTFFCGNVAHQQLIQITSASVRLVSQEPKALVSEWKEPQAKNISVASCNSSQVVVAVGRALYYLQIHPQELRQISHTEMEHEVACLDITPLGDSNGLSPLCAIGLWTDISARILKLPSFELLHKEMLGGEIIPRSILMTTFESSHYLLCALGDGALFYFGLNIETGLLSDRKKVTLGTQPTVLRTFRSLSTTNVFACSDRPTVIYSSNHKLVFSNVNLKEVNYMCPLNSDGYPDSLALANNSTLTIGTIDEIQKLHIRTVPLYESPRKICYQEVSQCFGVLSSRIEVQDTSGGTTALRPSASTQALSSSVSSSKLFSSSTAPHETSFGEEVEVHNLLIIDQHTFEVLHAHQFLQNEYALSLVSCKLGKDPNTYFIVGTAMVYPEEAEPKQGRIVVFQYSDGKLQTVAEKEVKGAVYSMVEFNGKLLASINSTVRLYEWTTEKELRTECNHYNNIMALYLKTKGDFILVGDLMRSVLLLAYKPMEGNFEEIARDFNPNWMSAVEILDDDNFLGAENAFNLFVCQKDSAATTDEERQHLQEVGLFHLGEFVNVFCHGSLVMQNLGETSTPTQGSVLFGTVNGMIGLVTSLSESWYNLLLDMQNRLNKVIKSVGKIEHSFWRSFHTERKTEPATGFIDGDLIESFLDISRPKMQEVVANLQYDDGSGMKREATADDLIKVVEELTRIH
T1 sequence (O95365 whole entry): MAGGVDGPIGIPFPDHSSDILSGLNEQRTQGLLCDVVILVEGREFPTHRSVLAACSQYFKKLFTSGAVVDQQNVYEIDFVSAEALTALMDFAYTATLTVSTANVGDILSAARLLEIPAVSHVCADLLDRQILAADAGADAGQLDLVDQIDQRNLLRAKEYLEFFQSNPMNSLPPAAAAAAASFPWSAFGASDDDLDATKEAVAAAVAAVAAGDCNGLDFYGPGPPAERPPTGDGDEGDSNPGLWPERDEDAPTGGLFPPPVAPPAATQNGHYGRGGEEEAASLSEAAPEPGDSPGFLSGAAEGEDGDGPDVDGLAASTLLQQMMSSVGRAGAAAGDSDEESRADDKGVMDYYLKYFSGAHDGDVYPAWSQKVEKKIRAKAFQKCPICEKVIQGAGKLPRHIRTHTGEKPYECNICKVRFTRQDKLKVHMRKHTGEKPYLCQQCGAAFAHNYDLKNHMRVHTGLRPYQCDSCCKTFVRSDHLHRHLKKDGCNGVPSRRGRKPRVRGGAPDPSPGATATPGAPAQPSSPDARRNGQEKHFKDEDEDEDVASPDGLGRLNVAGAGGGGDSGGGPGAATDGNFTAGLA
T1 sequence (Q96SW2 whole entry): as the sequence (Q96SW2 whole entry) above
T1 sequence (Q16531 whole entry partner): as the sequence (Q16531 whole entry partner) above

Row | SMILES | DC50 (ZBTB7A) [nM] | DC50 (WIZ) [nM] | HBF AUC (HbF)
1 | Cc1cc(-c2cc3c(cc2Nc2cccc4c2C(=O)N([C@H]2CCC(=O)NC2=O)C4=O)N(C)C(=O)O[C@H]3C)c(F)cn1 [Compound 73, 2-((S)-2,6-dioxopiperidin-3-yl)-4-(((S)-6-(5-fluoro-2-methylpyridin-4-yl)-1,4-dimethyl-2-oxo-1,4-dihydro-2H-benzo[d][1,3]oxazin-7-yl)amino)isoindoline-1,3-dione] | 11 | 12 | ++ (++ = 100 ≤ AUC < 150)
2 | Cc1cc(-c2cc3c(cc2Nc2cccc4c2C(=O)N([C@H]2CCC(=O)NC2=O)C4=O)N(C)C(=O)O[C@@H]3C)c(F)cn1 [Compound 74, 2-((S)-2,6-dioxopiperidin-3-yl)-4-(((R)-6-(5-fluoro-2-methylpyridin-4-yl)-1,4-dimethyl-2-oxo-1,4-dihydro-2H-benzo[d][1,3]oxazin-7-yl)amino)isoindoline-1,3-dione] | 10 | 11 | ++ (++ = 100 ≤ AUC < 150)
3 | CC(=O)N1CCC(c2cc3c(cc2Nc2cccc4c2C(=O)N([C@H]2CCC(=O)NC2=O)C4=O)N(C)C(=O)OC3C)CC1 (stereo partly drawn) [Compound 75, 4-((6-(1-acetylpiperidin-4-yl)-1,4-dimethyl-2-oxo-1,4-dihydro-2H-benzo[d][1,3]oxazin-7-yl)amino)-2-((S)-2,6-dioxopiperidin-3-yl)isoindoline-1,3-dione] | 75 | 37 | ++ (++ = 100 ≤ AUC < 150)
4 | COc1cc(-c2c(Nc3cccc4c3C(=O)N([C@H]3CCC(=O)NC3=O)C4=O)cc3c(c2F)OCC(=O)N3C)c(F)cn1 [Compound 76, 2-((S)-2,6-dioxopiperidin-3-yl)-4-((8-fluoro-7-(5-fluoro-2-methoxypyridin-4-yl)-4-methyl-3-oxo-3,4-dihydro-2H-benzo[b][1,4]oxazin-6-yl)amino)isoindoline-1,3-dione] | 65 | 22 | + (+ = 15 ≤ AUC < 100)
5 | Cc1cc(-c2c(Nc3cccc4c3C(=O)N(C3CCC(=O)NC3=O)C4=O)cc3c(c2F)OCC(=O)N3C)cc(C(F)F)n1 (stereo not drawn) [Compound 77, 4-((7-(2-(difluoromethyl)-6-methylpyridin-4-yl)-8-fluoro-4-methyl-3-oxo-3,4-dihydro-2H-benzo[b][1,4]oxazin-6-yl)amino)-2-(2,6-dioxopiperidin-3-yl)isoindoline-1,3-dione] | 102 | 112 | + (+ = 15 ≤ AUC < 100)
6 | Cc1cc(-c2c(Nc3cccc4c3C(=O)N(C3CCC(=O)NC3=O)C4=O)cc3c(c2F)OCC(=O)N3C)cc(C(F)F)n1 (stereo not drawn) [Compound 78, 4-((7-(2-(difluoromethyl)-6-methylpyridin-4-yl)-8-fluoro-4-methyl-3-oxo-3,4-dihydro-2H-benzo[b][1,4]oxazin-6-yl)amino)-2-(2,6-dioxopiperidin-3-yl)isoindoline-1,3-dione] | 70 | 76 | ++ (++ = 100 ≤ AUC < 150)
7 | Cc1cc(-c2c(Nc3cccc4c3C(=O)N([C@H]3CCC(=O)NC3=O)C4=O)cc3c(c2F)C(C)OC(=O)N3C)ccn1 (stereo partly drawn) [Compound 79, 2-((S)-2,6-dioxopiperidin-3-yl)-4-((5-fluoro-1,4-dimethyl-6-(2-methylpyridin-4-yl)-2-oxo-1,4-dihydro-2H-benzo[d][1,3]oxazin-7-yl)amino)isoindoline-1,3-dione] | 28 | 27 | + (+ = 15 ≤ AUC < 100)
8 | Cc1cc(-c2c(Nc3cccc4c3C(=O)N(C3CCC(=O)NC3=O)C4=O)cc3c(c2F)OCC(=O)N3C)ccn1 (stereo not drawn) [Compound 80, 2-(2,6-dioxopiperidin-3-yl)-4-((8-fluoro-4-methyl-7-(2-methylpyridin-4-yl)-3-oxo-3,4-dihydro-2H-benzo[b][1,4]oxazin-6-yl)amino)isoindoline-1,3-dione] | 38 | 29 | ++ (++ = 100 ≤ AUC < 150)
9 | Cc1cc(-c2c(Nc3cccc4c3C(=O)N(C3CCC(=O)NC3=O)C4=O)cc3c(c2F)OCC(=O)N3C)ccn1 (stereo not drawn) [Compound 81, 2-(2,6-dioxopiperidin-3-yl)-4-((8-fluoro-4-methyl-7-(2-methylpyridin-4-yl)-3-oxo-3,4-dihydro-2H-benzo[b][1,4]oxazin-6-yl)amino)isoindoline-1,3-dione] | 28 | 24 | ++ (++ = 100 ≤ AUC < 150)
10 | Cc1cc(-c2c(Nc3cccc4c3C(=O)N([C@H]3CCC(=O)NC3=O)C4=O)cc3c(c2F)[C@@H](C)OC(=O)N3C)c(F)cn1 [Compound 82, 2-((S)-2,6-dioxopiperidin-3-yl)-4-(((4R)-5-fluoro-6-(5-fluoro-2-methylpyridin-4-yl)-1,4-dimethyl-2-oxo-1,4-dihydro-2H-benzo[d][1,3]oxazin-7-yl)amino)isoindoline-1,3-dione] | 19 | 54 | ++ (++ = 100 ≤ AUC < 150)
11 | Cc1cc(-c2cc3c(cc2Nc2cccc4c2C(=O)N(C2CCC(=O)NC2=O)C4=O)N(C)C(=O)CC3(C)C)ccn1 (stereo not drawn) [Compound 83, 2-(2,6-dioxopiperidin-3-yl)-4-((1,4,4-trimethyl-6-(2-methylpyridin-4-yl)-2-oxo-1,2,3,4-tetrahydroquinolin-7-yl)amino)isoindoline-1,3-dione] | 13 | 8 | + (+ = 15 ≤ AUC < 100)
12 | CC(=O)N1CCC(c2cc3c(cc2Nc2cccc4c2C(=O)N(C2CCC(=O)NC2=O)C4=O)N(C)C(=O)CC3)CC1 (stereo not drawn) [Compound 84, 4-((6-(1-acetylpiperidin-4-yl)-1-methyl-2-oxo-1,2,3,4-tetrahydroquinolin-7-yl)amino)-2-(2,6-dioxopiperidin-3-yl)isoindoline-1,3-dione] | 19 | 7 | +++ (+++ = AUC ≥ 150)
13 | Cc1cc(-c2cc3c(cc2Nc2cccc4c2C(=O)N([C@H]2CCC(=O)NC2=O)C4=O)N(C)C(=O)[C@@H](C)C3)ccn1 [Compound 86, 4-(((S)-1,3-dimethyl-6-(2-methylpyridin-4-yl)-2-oxo-1,2,3,4-tetrahydroquinolin-7-yl)amino)-2-((S)-2,6-dioxopiperidin-3-yl)isoindoline-1,3-dione] | 48 | 9 | + (+ = 15 ≤ AUC < 100)
14 | Cc1cc(-c2cc3c(cc2Nc2cccc4c2C(=O)N([C@H]2CCC(=O)NC2=O)C4=O)N(C)C(=O)[C@H](C)C3)ccn1 [Compound 87, 4-(((R)-1,3-dimethyl-6-(2-methylpyridin-4-yl)-2-oxo-1,2,3,4-tetrahydroquinolin-7-yl)amino)-2-((S)-2,6-dioxopiperidin-3-yl)isoindoline-1,3-dione] | 16 | 12 | + (+ = 15 ≤ AUC < 100)
15 | Cc1cc(-c2cc3c(cc2Nc2cccc4c2C(=O)N([C@H]2CCC(=O)NC2=O)C4=O)N(C2CC2)C(=O)CC3)ccn1 [Compound 88, (S)-4-((1-cyclopropyl-6-(2-methylpyridin-4-yl)-2-oxo-1,2,3,4-tetrahydroquinolin-7-yl)amino)-2-(2,6-dioxopiperidin-3-yl)isoindoline-1,3-dione] | 60 | 8 | + (+ = 15 ≤ AUC < 100)
16 | CCN1C(=O)CCc2cc(-c3ccnc(C)c3)c(Nc3cccc4c3C(=O)N([C@H]3CCC(=O)NC3=O)C4=O)cc21 [Compound 89, (S)-2-(2,6-dioxopiperidin-3-yl)-4-((1-ethyl-6-(2-methylpyridin-4-yl)-2-oxo-1,2,3,4-tetrahydroquinolin-7-yl)amino)isoindoline-1,3-dione] | 13 | 14 | + (+ = 15 ≤ AUC < 100)
17 | Cc1cc(-c2c(Nc3cccc4c3C(=O)N([C@H]3CCC(=O)NC3=O)C4=O)cc3c(c2F)CCC(=O)N3C)ccn1 [Compound 90, (S)-2-(2,6-dioxopiperidin-3-yl)-4-((5-fluoro-1-methyl-6-(2-methylpyridin-4-yl)-2-oxo-1,2,3,4-tetrahydroquinolin-7-yl)amino)isoindoline-1,3-dione] | 24 | 14 | ++ (++ = 100 ≤ AUC < 150)
18 | CO[C@H]1CC[C@H](c2cc3c(cc2Nc2cccc4c2C(=O)N([C@H]2CCC(=O)NC2=O)C4=O)N(C)C(=O)CC3)CC1 [Compound 91, 2-((S)-2,6-dioxopiperidin-3-yl)-4-((6-((1r,4S)-4-methoxycyclohexyl)-1-methyl-2-oxo-1,2,3,4-tetrahydroquinolin-7-yl)amino)isoindoline-1,3-dione] | 4 | 4 | ++ (++ = 100 ≤ AUC < 150)
19 | CO[C@H]1CC[C@@H](c2cc3c(cc2Nc2cccc4c2C(=O)N(C2CCC(=O)NC2=O)C4=O)N(C)C(=O)CC3)CC1 (stereo partly drawn) [Compound 92, 2-(2,6-dioxopiperidin-3-yl)-4-((6-((1s,4s)-4-methoxycyclohexyl)-1-methyl-2-oxo-1,2,3,4-tetrahydroquinolin-7-yl)amino)isoindoline-1,3-dione] | 3 | 2 | + (+ = 15 ≤ AUC < 100)
